Here are results for 14 compounds from patent US20260215418A1, “HYDROCARBON ALCOHOLS AND THEIR DERIVATIVES AS SYNERGISTS IN PESTICIDE ACTIVITY” (priority 2022, published 2026).

Read-outs that look alike come from different tables or passages of the source.

One series deals with Blatta orientalis. The conditions noted are these: for synergizing effect on Cypermethrin / Mortality %/time (h) (application): Blatta orientalis; for synergizing effect on Cypermethrin: synergist applied with Cypermethrin; for Mortality %/time (h) (application): Table 37, concentrations in mg/ml in label; for Mortality %: insects on treated tile. As to the method: Method: Contact test on non-porous tile measuring 400 cm^2 at a temperature of 28° C. Test duration: up to 72 hours after exposure of the insect to the insecticidal active substance.
(§1) Three tests were performed in parallel, A, B, and C, as follows: • A) Comparative. 1 ml of Composition 2 was applied to the tile. After waiting for the complete evaporation of the solvent, 10 cockroaches were placed on top of the treated tile, starting the test. • B) According to the invention. 1 ml of Composition 8b was distributed on the tile. After waiting for the complete evaporation of the solvent, 1 ml of Composition 2 was added to the same tile. Subsequently, after waiting for the solvent to evaporate, 10 cockroaches were placed on top of the treated tile, starting the test. • C) According to the invention. 1 ml of Composition 8b was distributed on a tile. After waiting for the complete evaporation of the solvent, 10 cockroaches were placed for 30 minutes on top of the treated tile. At the end of the 30 minutes, the cockroaches were transferred to an untreated area.
Method: Contact test on non-porous tile measuring 400 cm^2 at a temperature of 28° C. Test duration: up to 120 hours after exposure of the insect to the insecticidal active substance.
as §1, with “4a” for “2”, “8d” for “8b”, “After” for “Subsequently, after”
Six tests were performed in parallel, A, B, C, D, E and F, as follows: • A) Comparative. 1 ml of Composition 9b was distributed on the tile. After waiting for the complete evaporation of the solvent, 1 ml of Composition 4a was added to the same tile. Subsequently, after waiting for the solvent to evaporate, 10 cockroaches were placed on top of the treated tile, starting the test. • B) Comparative. 1 ml of Composition 9b was distributed on a tile. After waiting for the complete evaporation of the solvent, 10 cockroaches were placed for 30 minutes on top of the treated tile. At the end of the 30 minutes, the cockroaches were transferred to an untreated area. […] 1 ml of Composition 10b was distributed on the tile. After waiting for the complete evaporation of the solvent, 1 ml of Composition 4a was added to the same tile. Subsequently, after waiting for the solvent to evaporate, 10 cockroaches were placed on top of the treated tile, starting the test. • D) Comparative. 1 ml of Composition 10b was distributed on a tile. After waiting for the complete evaporation of the solvent, 10 cockroaches were placed for 30 minutes on top of the treated tile. At the end of the 30 minutes, the cockroaches were transferred to an untreated area. […] 1 ml of Composition 8d was distributed on the tile. After waiting for the complete evaporation of the solvent, 1 ml of Composition 4a was added to the same tile. Subsequently, after waiting for the solvent to evaporate, 10 cockroaches were placed on top of the treated tile, starting the test. • F) According to the invention. 1 ml of Composition 8d was distributed on a tile. After waiting for the complete evaporation of the solvent, 10 cockroaches were placed for 30 minutes on top of the treated tile. At the end of the 30 minutes, the cockroaches were transferred to an untreated area.

Another series concerns Musca domestica L. The series is described as follows: Contact test on non-porous tile, Musca domestica. The conditions noted are these: for synergizing effect on Cypermethrin: Musca domestica L., synergist applied with Cypermethrin; for mortality at 680 µg/mL: Musca domestica, single substance alone, 0.68 mg/ml, 48 h, read-out: Mortality %/time (h). Format: in vivo. The method, then: 1 ml of Composition 1 was applied to the tile. […] 1 ml of Composition 8a was distributed on the tile. […] 1 ml of Composition 8a was distributed on a tile. […] At the end of the 30 minutes, the flies were transferred to an untreated area.
1 ml of Composition 3 was applied to the tile. […] 1 ml of Composition 8c was distributed on the tile. […] 1 ml of Composition 8c was distributed on a tile. […] At the end of the 30 minutes, the flies were transferred to an untreated area.
1 ml of Composition 9a was distributed on the tile. […] 1 ml of Composition 9a was distributed on a tile. […] At the end of the 30 minutes, the flies were transferred to an untreated area. […] 1 ml of Composition 10a was distributed on the tile. […] 1 ml of Composition 10a was distributed on a tile. […] At the end of the 30 minutes, the flies were transferred to an untreated area. […] 1 ml of Composition 8c was distributed on the tile. […] 1 ml of Composition 8c was distributed on a tile. […] At the end of the 30 minutes, the flies were transferred to an untreated area.
1 ml of Composition 5a, was distributed on the tile. […] 1 ml of Composition 6a was distributed on the tile. […] 1 ml of Composition 7a was distributed on the tile.
1 ml of Composition 3 was distributed on the tile. […] 1 ml of Composition 9a was distributed on the tile. […] 1 ml of Composition 11a was distributed on a tile. […] 1 ml of Composition 12a was distributed on a tile.
1 ml of Composition 3 was distributed on the tile. […] 1 ml of Composition 17a was distributed on a tile. […] 1 ml of Composition 18a was distributed on a tile. […] Each experiment (A-C) was conducted in duplicate.
1 ml of Composition 23a was distributed on the tile. […] 1 ml of Composition 20a was distributed on a tile. […] Each experiment (A-B) was conducted in duplicate.
1 ml of Composition 3 was distributed on the tile. […] 1 ml of Composition 25a was distributed on a tile. […] Each experiment (A-B) was conducted in duplicate.
1 ml of Composition 23a was distributed on the tile. […] 1 ml of Composition 27a was distributed on a tile. […] Each experiment (A-B) was conducted in duplicate.
1 ml of Composition 26a was distributed on a tile. […] 1 ml of Composition 26b was distributed on a tile. […] 1 ml of Composition 26c was distributed on a tile.
1 ml of Composition 22a was distributed on a tile. […] 1 ml of Composition 22b was distributed on a tile. […] 1 ml of Composition 22c was distributed on a tile.
1 ml of Composition 23a was distributed on the tile. […] 1 ml of Composition 44a was distributed on a tile.
1 ml of Composition 33 was distributed on a tile. […] 1 ml of Composition 33 was distributed on a tile. […] At the end of the 30 minutes, the flies were transferred to an untreated area.
1 ml of Composition 1 was distributed on the tile. […] 1 ml of Composition 34 was distributed on a tile. […] 1 ml of Composition 34 was distributed on a tile. […] At the end of the 30 minutes, the flies were transferred to an untreated area.
1 ml of Composition 3 was distributed on the tile. […] 1 ml of Composition 31a was distributed on a tile. […] 1 ml of Composition 31b was distributed on a tile. […] 1 ml of Composition 31b was distributed on a tile. […] At the end of the 30 minutes, the flies were transferred to an untreated area. […] 1 ml of Composition 38a was distributed on a tile. […] 1 ml of Composition 38a was distributed on a tile. […] At the end of the 30 minutes, the flies were transferred to an untreated area.
G) According to the invention. 1 ml of Composition 40a was distributed on a tile. […] Subsequently, after waiting for the solvent to evaporate, 10 flies were placed on top of the treated til

The subject of another series is Blatta lateralis. The series is described as follows: Contact test on non-porous tile, Blatta lateralis. The conditions noted are these: for Mortality %: 25° C, insects on treated tile; for Mortality %/time (h) (application): Table 37, Blatta lateralis, concentrations in mg/ml in label. Format: in vivo. On the set-up: Mortality %: concentration or dose not given beside the values. The method, then: 1 ml of Composition 24 was distributed on the tile. […] 1 ml of Composition 20c was distributed on a tile. […] 1 ml of Composition 20d was distributed on a tile.
1 ml of Composition 24 was distributed on the tile. […] 1 ml of Composition 28 was distributed on a tile. […] Each experiment (A-B) was conducted in duplicate.
1 ml of Composition 24 was distributed on the tile. […] 1 ml of Composition 21 was distributed on a tile.
1 ml of Composition 4b was distributed on the tile. […] 1 ml of Composition 31c was distributed on a tile. […] 1 ml of Composition 31d was distributed on a tile. […] 1 ml of Composition 31d was distributed on a tile.
1 ml of Composition 24 was distributed on the tile. […] 1 ml of Composition 35 was distributed on a tile. […] 1 ml of Composition 40b was distributed on a tile. […] 1 ml of Composition 42 was distributed on a tile.

On to `CCCCCCCCCCC(CO)CCCCCCCC` (stereo not drawn) [2-octyldodecanol], for which the “synergizing effect on Cypermethrin” value in the series on Blatta orientalis was “superior to that shown with PBO”. For the same compound, in the series on Musca domestica L., the “synergizing effect on Cypermethrin” value is “synergistic effect, comparable to the activity shown by PBO” and the mortality at 680 µg/mL was 20%.

On to `CC1(C)C(C=C(Cl)Cl)C1C(=O)OC(C#N)c1cccc(Oc2ccccc2)c1` (stereo not drawn) [Composition 4b, Cypermethrin], for which the Mortality % stood at 0% with Blatta lateralis (Example 31, 24 h) and 40% with Blatta lateralis (Example 31, 48 h). Besides, the “Mortality %/time (h) (application)” value with Blatta lateralis (48 h) is 40/48 ^ %.

Consider `CCCCCCCCOC(=O)OCCCCCCCC` [Composition 18b, Dioctyl carbonate], for which, in the series with Blatta orientalis (48 h), the “Mortality %/time (h) (application)” value is 0/48 ^ %.

In the case of `COP(=O)(OC)SCn1c(=O)oc2cc(Cl)cnc21` [Composition 23b, Azamethiphos], the Mortality % in the series on Blatta orientalis (Example 15, 21° C, 24 h) is 10%; in the series on Blatta orientalis (Example 15, 21° C, 48 h), 17%; with Blatta orientalis (Example 15, 21° C, 72 h), 23%; in the series with Blatta orientalis (Example 21, 25° C, 48 h), 17%; in the series with Blatta orientalis (Example 25, 21° C, 24 h), 10%; with Blatta orientalis (Example 25, 21° C, 48 h), 17%. Further, the Mortality % with Blatta orientalis (Example 25, 21° C, 72 h) is reported as 23%. Further, the “Mortality %/time (h) (application)” value with Blatta orientalis (48 h) is reported as 17/48 ^ %.

As for `O=[N+]([O-])NC1=NCCN1Cc1ccc(Cl)nc1` [Composition 24, Imidacloprid], the Mortality % in the series with Blatta lateralis (Example 16, 48 h) is on record as 20%; in the series with Blatta lateralis (Example 22, 48 h), 20%; in the series with Blatta lateralis (Example 26, 48 h) it was 20%; in the series on Blatta lateralis (Example 33, 48 h) it was 20%. Further, the “Mortality %/time (h) (application)” value in the series on Blatta lateralis (48 h) is given as 20/48 ^ %.

On to `CCCCCCCC/C=C\CCCCCCCCOC(C)=O` [Composition 25b, Oleyl acetate], for which the “Mortality %/time (h) (application)” value in the series with Blatta orientalis (48 h) is listed as 0/48 ^ %.

In the case of `CCCCC(O)CO` (stereo not drawn) [Composition 31c, 1,2-hexandiol], the “Mortality %/time (h) (application)” value in the series on Blatta lateralis (48 h, listed as 1,2-hexandiol (0.05)) is recorded as 14/48 ^ %.

With `CCCCC(O)CO` (stereo not drawn) [Composition 31d, 1,2-hexandiol], the “Mortality %/time (h) (application)” value in the series on Blatta lateralis (48 h, listed as 1,2-hexandiol (0.07)) was 20/48 ^ %.

Regarding `CC1(C)C(C=C(Cl)Cl)C1C(=O)OC(C#N)c1cccc(Oc2ccccc2)c1` (stereo not drawn) [Composition 46b, Cypermethrin], the Mortality % is reported as 8% in the series with Blatta orientalis (Example 36, 25° C, 24 h) and 17% in the series on Blatta orientalis (Example 36, 25° C, 48 h). The “Mortality %/time (h) (application)” value in the series on Blatta orientalis (48 h, listed as Cypermethrin (0.10)) is recorded as 17/48 ^ %.

In the case of `CCCCC(CC)COC(=O)OCC(CC)CCCC` (stereo not drawn) [bis(2-ethylhexyl)-carbonate], the “synergizing effect on Cypermethrin” value in the series on Blatta orientalis is on record as “synergizing effect”. Moreover, in the series with Musca domestica L., the “synergizing effect on Cypermethrin” value is on record as “high synergizing effect” and the mortality at 680 µg/mL stood at 19%.

Take `CCCCCCCCCCCCOC(C)=O` [dodecyl acetate]: the “synergizing effect on Cypermethrin” value in the series with Blatta orientalis is reported as “excellent-fine synergizing effect”.

As to `CCCCCCCCOC(C)=O` [n-Octyl acetate], the “synergizing effect on Cypermethrin” value with Blatta orientalis was “excellent-fine synergizing effect”.

Take Alcohol oleic [Composition 20b]: the “Mortality %/time (h) (application)” value with Blatta orientalis (48 h) was 0/48 ^ %.

As for oleic alcohol [Composition 8b], in the series with Blatta orientalis (48 h), the “Mortality %/time (h) (application)” value was 0/48 ^ %.
